Measured values as given in patent US20230067910A1, “NOVEL COMPOUNDS FOR THE DIAGNOSIS, TREATMENT AND PREVENTION OF DISEASES ASSOCIATED WITH THE AGGREGATION OF ALPHA-SYNUCLEIN” (MODAG GMBH, priority 2019, published 2023).

Columns and labels:
[1] = target: T1, aggregated tau46 (Homo sapiens, UniProt P10636); assay: Saturation binding assay, protocol 2a, tau46 fibrils; settings: saturation assay protocol 2a, [3H]-labeled compound
T1 construct: made in house; host or cells: E. coli
Method: (§1) Alpha-synuclein and tau46 were purified from E. coli according to established protocols (Nuscher B, et al., J. Biol. Chem., 2004; 279(21):21966-75), Aβ1-42 was obtained from rPeptide, Watkinsville, Ga., USA. Fibrils were prepared by aggregation of recombinant protein via constant agitation. In detail, 70 μM of alpha-synuclein mixed with 100 mM NaCl in 50 mM Tris, pH 7.0+0.02% NaN3 were incubated at 1,400 rpm, 37° C. for 96 h. 10 μM of tau46 were incubated with 0.03 mg/ml heparin in 50 mM Tris, pH=7.0 at 1,000 rpm, 37° C. for 72 h. Aβ1-42 was solved in 20 mM NaPi, pH=8.0+0.2 mM EDTA+0.02% NaN3 (Deeg A A, et al., Biochim. Biophys. Acta, 2015; 1850(9): 1884-90; Goedert M, et al. Nature, 1996; 383(6600): 550-3).
Sonicated αSYN (0.04 μM) or tau46 (0.4 μM) or Aβ1-42 (6 μM) fibrils diluted in PBS were incubated with decreasing concentrations of [^3H]-labeled compound (48 nM or 24 nM-[…]) in 50 mM Tris-base, 10% ethanol, 0.05% Tween20, pH 7.4. […]
Assay plates were incubated under agitation at 37° C. for 2 h, covered by plastic foil (Resealable tape, PerkinElmer, Waltham, Mass., USA). […] Accumulation of tritium was counted in a liquid scintillation counter (Wallac MicroBeta® TriLux, 1450 LSC & Luminescence Counter, PerkinElmer, Waltham, Mass., USA) immediately. Radioactivity was plotted against the increasing tritium-labeled compound or cold compound concentrations. […]

[2] = target: T2, aggregated alpha-synuclein (Homo sapiens, UniProt P37840); assay: Autoradiography using human brain tissue (dementia with Lewy bodies); type: binding
T2 construct: made in house; host or cells: E. coli
Method: Autoradiography was performed on histological slices of frozen brain tissue using tritiated compound 1 and brain tissue derived from the cingulate gyrus of a patient with dementia with Lewy bodies.

[3] = In vivo biodistribution of [11C]-labeled compounds, small animal PET; settings: [11C]-labeled compound, intravenous tail vein, mice; for half-life: mouse, brain, read-out: Clearance half-life (brain)
Method: [^11C]-labeled compound 1 and compound 2, respectively, were injected intravenously in the tail vein of mice. Mice were then imaged in a small animal PET instrument. For both compounds, a good blood-brain-barrier penetration with SUV values >1.5 was observed.

[4] = target: T3, tau46 (fibrils) (Homo sapiens, UniProt P10636); assay: Competition binding assay, protocol 3a, reference ligand [3H]-compound 1, tau46 fibrils; settings: Experiment B, reference ligand [3H]-compound 1 (1 nM)
T3 construct: made in house; host or cells: E. coli
Method: as §1
A fixed concentration of sonicated human recombinant αSYN (200 nM/well) or tau46 (208 nM/well) fibrils diluted in phosphate buffered saline (PBS) were incubated in low binding plates (96 well micro test plate, Ratiolab GmbH, Dreieich, Germany) together with 1 nM [^3H]-compound 1 and 1:4 serial dilutions of the cold compound of interest starting from 1 μM diluted in 50 mM Tris-base, 10% EtOH, 0.05% Tween20, pH 7.4. For the calculation of Ki values the KD value of compound 1 toward sonicated human recombinant αSYN fibrils was set to 3 nM.
Assay plates were incubated under agitation at 37° C. for 2 h covered by plastic foil (Resealable tape, PerkinElmer, Waltham, Mass., USA). Prior to harvesting, a filter (Printed filtermat B, PerkinElmer, Waltham, Mass., USA) was incubated with 5 mg/mL polyethylenimine (PEI, Poly(ethyleneimine) solution, Sigma Aldrich Chemie GmbH, Taufkirchen, Germany) at 4° C. for 30 min. After incubation, bound and free ligands were separated by vacuum filtration using a harvester (Filtermate harvester, PerkinElmer, Waltham, Mass., USA). The filter was washed three times with buffer cooled to 4° C. and subsequently dried in the microwave for 2 min at medium power. The filter was sealed in a plastic bag (Sample bag for MicroBeta®, PerkinElmer, Waltham, Mass., USA) together with added scintillator (BETAPLATE SCINT, PerkinElmer, Waltham, Mass., USA). Accumulation of tritium was counted in a liquid scintillation counter (Wallac MicroBeta® TriLux, 1450 LSC & Luminescence Counter, PerkinElmer, Waltham, Mass., USA) immediately. Radioactivity was plotted against the increasing tritium-labeled compound or cold compound concentrations. Data points were fitted using nonlinear regression analysis in GraphPad Prism (GraphPad Software, Inc., Version 7.03, La Jolla, Calif., USA).
The fibril competition assay provides Ki values. Ki is a quantitative measure that represents the concentration of the non-radioactive tested compound (competitor ligand) required to replace 50% of a reference compound, in this case [H]-compound 1 (1 nM) or [H]-compound 2 (1 nM), which is bound to the target structures (1 nM), in our case recombinant alpha-synuclein and tau46 fibrils. This assay is suitable for a screening of non-radioactive ligands.

T1 sequence (P10636 1-412 isoform P10636-7): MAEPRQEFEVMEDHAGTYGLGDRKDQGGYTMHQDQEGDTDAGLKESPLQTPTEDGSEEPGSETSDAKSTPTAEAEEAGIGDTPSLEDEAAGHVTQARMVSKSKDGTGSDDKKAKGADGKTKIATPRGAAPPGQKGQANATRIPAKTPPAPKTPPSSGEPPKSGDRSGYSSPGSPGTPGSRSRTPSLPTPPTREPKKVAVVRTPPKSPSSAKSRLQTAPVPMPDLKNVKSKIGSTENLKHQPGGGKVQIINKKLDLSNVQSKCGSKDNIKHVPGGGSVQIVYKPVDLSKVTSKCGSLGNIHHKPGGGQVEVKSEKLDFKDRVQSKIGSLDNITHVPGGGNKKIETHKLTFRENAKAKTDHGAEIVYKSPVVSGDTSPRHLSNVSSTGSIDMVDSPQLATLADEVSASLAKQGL
T3 sequence (P10636 1-412 isoform P10636-7): as above

SMILES	Kd [1] [nM]	Autoradiography binding pattern ([2]; [3H]-compound 1 at 3 nM, cingulate gyrus, patient with dementia with Lewy bodies)	Unspecific binding to brain tissue ([2]; specific binding blocked by excess of non-tritiated compound 1)	Washout from the brain [3]	half-life [3] [min]	Ki [4] [nM]
CN(C)c1ccc(-c2cc(-c3ccnc(Br)c3)[nH]n2)cc1 [Compound 1, 4-[3-(4-dimethylamino-phenyl)-1H-pyrazol-5-yl]-2-bromopyridine]	> 5	preferential binding to the gray matter	no to very low unspecific binding	rapid washout from the brain	12	
CNc1ccc(-c2cc(-c3ccnc(Br)c3)[nH]n2)cc1 [Compound 2, 4-[5-(2-bromopyridin-4-yl)-1H-pyrazol-3-yl]-N-methylaniline]	> 15			rapid washout from the brain	9	9
